Where “and” joins values, the source holds several entries; their conditions need not be identical. Equal values may be shown once. Inconclusive results and toxic doses are left out. Non-standard residues stand in square brackets, D forms with d. Residues, ends and D or L forms follow the SMILES beside them. *: point of attachment. NMeY = CN[CH](Cc1ccc(O)cc1)C(=O)O; Bn = c1ccc(C*)cc1
Test system: BDF1 mice, P388 leukemia ip, median survival T/C
Test: NCI In Vivo Anticancer Drug Screen. Data for tumor model P388 Leukemia (intraperitoneal) in B6D2F1 (BDF1) mice
Conditions: endpoint: median survival time, higher = longer survival
Summary of the method: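 T/C = treated-group survival ÷ vehicle-control survival; tumour transplanted into mice before dosing.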

[1] = dose: 100.0 mg/kg/injection, schedule: Q04DX003 (ip), vehicle: saline with Tween-80
[2] = dose: 200.0 mg/kg/injection, schedule: Q04DX003 (ip), vehicle: saline with Tween-80
[3] = dose: 400.0 mg/kg/injection, schedule: Q04DX003 (ip), vehicle: saline with Tween-80
[4] = dose: 100.0 mg/kg/injection, schedule: Q01DX009 (ip), vehicle: saline
[5] = dose: 100.0 mg/kg/injection, schedule: Q04DX003 (ip), vehicle: saline
[6] = dose: 200.0 mg/kg/injection, schedule: Q01DX009 (ip), vehicle: saline
[7] = dose: 200.0 mg/kg/injection, schedule: Q04DX003 (ip), vehicle: saline
[8] = dose: 50.0 mg/kg/injection, schedule: Q01DX009 (ip), vehicle: saline with Tween-80
[9] = dose: 100.0 mg/kg/injection, schedule: Q01DX009 (ip), vehicle: saline with Tween-80
[10] = dose: 200.0 mg/kg/injection, schedule: Q01DX009 (ip), vehicle: saline with Tween-80
[11] = dose: 50.0 mg/kg/injection, schedule: Q04DX003 (ip), vehicle: saline with Tween-80
[12] = dose: 12.5 mg/kg/injection, schedule: Q04DX003 (ip), vehicle: saline with Tween-80
[13] = dose: 25.0 mg/kg/injection, schedule: Q04DX003 (ip), vehicle: saline with Tween-80
[14] = dose: 400.0 mg/kg/injection, schedule: Q01DX009 (ip), vehicle: saline with Tween-80
[15] = dose: 600.0 mg/kg/injection, schedule: Q01DX009 (ip), vehicle: saline with Tween-80

C=C(CNC(C)(C)C)C(=O)c1ccccc1
T/C (dose: 3.13 mg/kg/injection, schedule: Q01DX009 (ip), vehicle: saline): 116 % of control
T/C (dose: 6.25 mg/kg/injection, schedule: Q01DX009 (ip), vehicle: saline): 116 % of control

COP(=O)(OC)C(OC(=O)C(C)(C)SC(C)=S)=C(C)C
T/C [1]: 110 % of control
T/C [2]: 115 % of control
T/C [3]: 115 % of control

CCOC(=O)CCOc1ccccc1N(CCCl)CCCl
T/C (dose: 0.66 mg/kg/injection, schedule: Q04DX003 (ip), vehicle: other): 100 % of control
T/C (dose: 1.0 mg/kg/injection, schedule: Q04DX003 (ip), vehicle: other): 104 % of control
T/C (dose: 1.5 mg/kg/injection, schedule: Q04DX003 (ip), vehicle: other): 104 % of control
T/C (dose: 1.56 mg/kg/injection, schedule: Q04DX003 (ip), vehicle: other): 154 % of control
T/C (dose: 2.25 mg/kg/injection, schedule: Q04DX003 (ip), vehicle: other): 114 % of control
T/C (dose: 3.0 mg/kg/injection, schedule: Q04DX003 (ip), vehicle: saline sonified): 100 % of control
T/C (dose: 3.13 mg/kg/injection, schedule: Q04DX003 (ip), vehicle: other): 181 % of control
T/C (dose: 3.5 mg/kg/injection, schedule: Q04DX003 (ip), vehicle: saline with Tween-80): 172 % of control
T/C (dose: 5.2 mg/kg/injection, schedule: Q04DX003 (ip), vehicle: saline with Tween-80): 190 % of control
T/C (dose: 6.0 mg/kg/injection, schedule: Q04DX003 (ip), vehicle: saline sonified): 100 % of control
T/C (dose: 9.0 mg/kg/injection, schedule: Q04DX003 (ip), vehicle: saline sonified): 100 % of control
T/C (dose: 11.0 mg/kg/injection, schedule: Q04DX003 (ip), vehicle: other): 227 % of control
T/C (dose: 12.0 mg/kg/injection, schedule: Q01DX009 (ip), vehicle: saline): 152 % of control
T/C (dose: 12.0 mg/kg/injection, schedule: Q04DX003 (ip), vehicle: saline): 156 % of control
T/C (dose: 12.5 mg/kg/injection, schedule: Q04DX003 (ip), vehicle: other): 222 % of control
T/C (dose: 16.5 mg/kg/injection, schedule: Q04DX003 (ip), vehicle: other): 294 % of control
T/C (dose: 25.0 mg/kg/injection, schedule: Q04DX003 (ip), vehicle: other): 150 % of control
T/C (dose: 25.0 mg/kg/injection, schedule: Q04DX003 (ip), vehicle: saline sonified): 159 % of control
T/C (dose: 50.0 mg/kg/injection, schedule: Q04DX003 (ip), vehicle: saline sonified): 159 % of control
T/C (dose: 100.0 mg/kg/injection, schedule: Q04DX003 (ip), vehicle: saline sonified): 168 % of control

CNC(Cc1ccc(OCc2ccccc2)cc1)C(=O)NC(CC(C)C)C(=O)OC (stereo not drawn) (H-[NMeY](Bn)-Leu-OMe; configuration not given here)
T/C (dose: 25.0 mg/kg/injection, schedule: Q01DX009 (ip), vehicle: saline): 106 % of control
T/C (dose: 50.0 mg/kg/injection, schedule: Q01DX009 (ip), vehicle: saline): 99 % of control
T/C (dose: 50.0 mg/kg/injection, schedule: Q04DX003 (ip), vehicle: saline): 108 % of control
T/C [4]: 92 % of control
T/C [5]: 111 % of control
T/C [6]: 106 % of control
T/C [7]: 106 % of control

O=C(Nc1ccccc1)N(C(=O)C(F)(F)F)c1ccccc1
T/C [8]: 95 % of control
T/C [9]: 92 % of control
T/C [10]: 90 % of control

CC(=O)CC(C)=O.CC(=O)CC(C)=O.O.O.[Ni]
T/C (dose: 6.25 mg/kg/injection, schedule: Q04DX003 (ip), vehicle: saline): 108 % of control
T/C (dose: 12.5 mg/kg/injection, schedule: Q04DX003 (ip), vehicle: saline): 104 % of control
T/C (dose: 25.0 mg/kg/injection, schedule: Q04DX003 (ip), vehicle: saline): 114 % of control

O=C(O)c1c(-c2ccccc2)[nH]c2cc(Cl)ccc2c1=O
T/C (dose: 6.25 mg/kg/injection, schedule: Q01DX009 (ip), vehicle: Klucel (hydroxypropylcellulose) (HPC)): 95 % of control
T/C (dose: 12.5 mg/kg/injection, schedule: Q01DX009 (ip), vehicle: Klucel (hydroxypropylcellulose) (HPC)): 90 % of control and 109 % of control
T/C (dose: 25.0 mg/kg/injection, schedule: Q01DX009 (ip), vehicle: Klucel (hydroxypropylcellulose) (HPC)): 100 % of control
T/C (dose: 50.0 mg/kg/injection, schedule: Q01DX009 (ip), vehicle: Klucel (hydroxypropylcellulose) (HPC)): 95 % of control
T/C [8]: 114 % of control
T/C [11]: 122 % of control
T/C (dose: 90.0 mg/kg/injection, schedule: Q04DX003 (ip), vehicle: saline with Tween-80): 109 % of control
T/C [9]: 118 % of control
T/C [1]: 113 % of control
T/C (dose: 133.0 mg/kg/injection, schedule: Q04DX003 (ip), vehicle: saline with Tween-80): 112 % of control and 113 % of control
T/C [10]: 100 % of control
T/C [2]: 108 % of control and 109 % of control
T/C (dose: 300.0 mg/kg/injection, schedule: Q04DX003 (ip), vehicle: saline with Tween-80): 104 % of control

CCCCCCCCCCCC1=NCCN1
T/C (dose: 3.13 mg/kg/injection, schedule: Q01DX009 (ip), vehicle: saline with Tween-80): 96 % of control
T/C (dose: 6.25 mg/kg/injection, schedule: Q01DX009 (ip), vehicle: saline with Tween-80): 100 % of control
T/C (dose: 12.5 mg/kg/injection, schedule: Q01DX009 (ip), vehicle: saline with Tween-80): 104 % of control
T/C [12]: 96 % of control

O=c1c2ccccc2ncn1-c1ccc(Cl)cc1
T/C [8]: 97 % of control
T/C [9]: 100 % of control
T/C [10]: 100 % of control

CN1CCCc2cccc(NC(=O)C3CCCNC3=O)c21 (stereo not drawn)
T/C [1]: 101 % of control
T/C [2]: 100 % of control
T/C [3]: 116 % of control

CCCCOc1ccc(NC(N)=Nc2ccc(Cl)cc2)cc1
T/C (dose: 3.12 mg/kg/injection, schedule: Q01DX010 (ip), vehicle: carboxymethylcellulose (CMC)): 95 % of control
T/C (dose: 12.5 mg/kg/injection, schedule: Q01DX010 (ip), vehicle: carboxymethylcellulose (CMC)): 90 % of control
T/C (dose: 25.0 mg/kg/injection, schedule: Q01DX010 (ip), vehicle: carboxymethylcellulose (CMC)): 95 % of control
T/C [13]: 109 % of control
T/C (dose: 50.0 mg/kg/injection, schedule: Q01DX010 (ip), vehicle: carboxymethylcellulose (CMC)): 95 % of control
T/C [11]: 90 % of control

CCOC(=O)CCCC1(C)C(C#N)C(=O)NC(=O)C1C#N (stereo not drawn)
T/C [5]: 104 % of control
T/C [7]: 100 % of control
T/C (dose: 400.0 mg/kg/injection, schedule: Q04DX003 (ip), vehicle: saline): 118 % of control

CC[C@H]1CN(C)[C@H]2Cc3c([nH]c4ccccc34)C(=O)C[C@H]1C2C(=O)OC (stereo partly drawn)
T/C (dose: 0.25 mg/kg/injection, schedule: Q01DX009 (ip), vehicle: other): 86 % of control
T/C (dose: 0.5 mg/kg/injection, schedule: Q01DX009 (ip), vehicle: other): 86 % of control
T/C (dose: 1.0 mg/kg/injection, schedule: Q01DX009 (ip), vehicle: other): 86 % of control
T/C (dose: 2.0 mg/kg/injection, schedule: Q01DX009 (ip), vehicle: other): 95 % of control

C[C@]12CC[C@H]3C(=CCc4cc(O)ccc43)[C@@H]1C/C(=N\O)C2=O
T/C [4]: 90 % of control
T/C (dose: 100.0 mg/kg/injection, schedule: Q04DX003 (ip), vehicle: Klucel (hydroxypropylcellulose) (HPC)): 104 % of control
T/C [6]: 100 % of control
T/C (dose: 200.0 mg/kg/injection, schedule: Q04DX003 (ip), vehicle: Klucel (hydroxypropylcellulose) (HPC)): 95 % of control
T/C (dose: 264.0 mg/kg/injection, schedule: Q01DX009 (ip), vehicle: saline with Tween-80): 109 % of control
T/C [14]: 104 % of control
T/C (dose: 400.0 mg/kg/injection, schedule: Q01DX009 (ip), vehicle: saline): 95 % of control
T/C (dose: 400.0 mg/kg/injection, schedule: Q04DX003 (ip), vehicle: Klucel (hydroxypropylcellulose) (HPC)): 90 % of control
T/C [15]: 109 % of control

CCCCN(CCCC)CC(O)c1ccc2cc(Cl)cc(Cl)c2n1 (stereo not drawn)
T/C (dose: 6.25 mg/kg/injection, schedule: Q04DX003 (ip), vehicle: saline with Tween-80): 110 % of control
T/C [12]: 115 % of control
T/C [13]: 110 % of control

O=C(c1ccccc1)C1OC1c1ccccc1 (stereo not drawn)
T/C [9]: 93 % of control
T/C [10]: 99 % of control
T/C [14]: 100 % of control
T/C [15]: 100 % of control

CCOC(=O)C(=CN1CCCC1)C(=O)OCC
T/C [1]: 100 % of control
T/C [2]: 100 % of control
T/C [3]: 109 % of control
